Experimental data reported in patent publication US4548952A, “2-[(2,6-Dichlorophenyl)amino]phenylacetoxyacetyl derivatives and therapeutic compositions containing same” (priority 1983, dated 1985).

Experiments:
[1] = Plantar carrageenin edema test (anti-inflammatory); format: in vivo, albino Sprague-Dawley male rats; settings: gastric catheter; for Inhibition % M ± σ: complementary value to area relative inflammation; for % Area Relative Inflammation (M ± σ): control = 100%
Protocol: The anti-inflammatory activity of two compounds was studied by means of the test of the plantar carrageenin edema (C. A. Winter, Proc. Soc. Exp. Brol. Med. 111, 544-47 (1962). The method used consists of preparing homogeneous lots of albino Sprague-Dawley male rats with weights of from 180-200 gr, to which are administered, by gastric catheter, the test compound suspended in a vehicle containing 0.2% CMC and 0.1% Tween 80, sixty minutes before the production of the subplantar edema. […] Immediately after this, all the rats received via oral administration 20 ml/kg of distilled water to attain uniform hydration. 60 minutes later a 1% carrageenin solution in physiologic serum was administered subcutanaceously into the left rear leg of each rat, at a dosage of 0.1 ml/rat. The same amount of physiologic serum was then injected into the right rear leg of each rat.
The plantar amount of the left and right rear extremities of each rat was determined before the administration of the carrageenin solution, and 1, 2, 3, 4, 5 and 6 hours after the administration thereof by means of a mercury plethysmograph, Ugo Basile Model 7.100. Indomethacin was used as a sample drug for purposes of comparison. Results were calculated as percentages representing the value indicated for each area relative to the value of the areas for the control group to which were assigned the value of 100% inflammation. A complementary value, the percentage of inhibition, was also calculated from the data. The arithmetic average and standard deviation (M±σ) were calculated for the obtained values as to the volumes of each leg, normal or inflamed, for each animal in each group (control and treated).

[2] = Acute toxicity by oral administration to rats; settings: for LD0: oral, rats
Protocol: The acute toxicity of the foregoing compounds according to the present invention was studied by oral administration thereof to rats. The LD0 and LD50 values were determined, together with the limits of reliability as determined by the method of Litchfield and Wilcoxon.

[3] = Fetal and teratogenous toxicity; format: in vivo, Sprague-Dawley rats and first generation fetuses; settings: 15, 50 and 75 mg/kg/day oral during organogenesis
[4] = Test of abdominal contractions by acetic acid (analgesic); format: in vivo, male mice; settings: gastric catheter, 16 mice, half an hour before acetic acid i.p.
Protocol: (§1) The new 2-[(2,6-dichlorophenyl)amino]phenylacetoxyacetyl derivatives, according to the present invention, are compounds of therapeutic use with anti-inflammatory and analgesic pharmacologic properties, as shown by experimental pharmacologic data presented below. The analgesic activity of the compound (I) where R=H was determined by three known methods as follows.
This test was carried out according to the experimental model described by Koster R., Anderson, M. and De Bear, E. J. Fed. Proc., 18, 412 (1959). A suspension of the product to be tested was administered to a group of male mice through a gastric catheter half an hour before injecting the mice intraperitoneally with 0.2 ml of a 2% acetic acid solution. The number of abdominal contractions, manifested by drawing in of the rear third of the animal as a consequence of the chemical aggression incited by the acetic acid, were then counted.

[5] = Hot plate thermal stimulus test on mice (analgesic); format: in vivo; settings: gastric catheter, hot plate 56° C., 10 mice, vs control mice
Protocol: as §1
This test is carried out according to the experimental model of Wolfe, G. and MacDonal, A. D., described in 3. Pharm. Exper. Therap. 80, 300 (1944). This test consists of administering, through a gastric catheter, a suspension of the test compound at the indicated dosages. After 30 minutes, 1 h., 11/2 h. and 2 h. the determinations were made. Mice were placed onto a hot plate at a temperature of 56° C. Table 2 indicates the percentage of protection from pain afforded by the dosages of the test compound in comparison with a group of control mice to which no test compound was administered.

[6] = Podolorimetric test in a rat (analgesic, yeast-infected leg); format: in vivo; settings: 10 rats, vs control rats
Protocol: as §1
This test is based upon the method described by Randall, L. and Selitto, 3. Arch. Int. Pharmacodyn. 111, 409 (1957), consisting of administering the drug in a 1% carboxymethylcellulose (CMC) suspension. The test compound is administered to the rat, and 30 minutes thereafter a 20% yeast suspension is administered into the left leg of the rat and the same amount of physiologic serum is administered to the right leg of the rat. The threshold of the weight supported by both legs is determined 1 h., 2 h. and 4 h. after the administration of the yeast. Table 3 states the percentage of protection in terms of increased weight supported by the yeast-infected leg, relative to the dosage of the test compound, in comparison with a group of control rats to which no test compound was administered.

Row | SMILES | Inhibition % M ± σ ([1]; 3.75 mg/kg, 32 animals) [%] | % Area Relative Inflammation (M ± σ) ([1]; 3.75 mg/kg, 32 animals) [%] | LD0 [2] [mg/kg] | LD50 ([2]; rat, in vivo, po) [mg/kg] | teratogenous effects [3] | toxic effects on the gestating females [3] | Inhibition % M ± σ ([1]; 2.5 mg/kg, 40 animals) [%] | % Area Relative Inflammation (M ± σ) ([1]; 2.5 mg/kg, 40 animals) [%] | % PROTECTION (CONTROL OF CONTRACTIONS) ([4]; 100 mg/kg) [%] | % PROTECTION (CONTROL OF CONTRACTIONS) ([4]; 250 mg/kg) [%] | % PROTECTION ([5]; 20 mg/kg) [%] | % PROTECTION ([5]; 40 mg/kg) [%] | % PROTECTION (increased weight supported by the yeast-infected leg) ([6]; 2.5 mg/kg) [%] | % PROTECTION (increased weight supported by the yeast-infected leg) ([6]; 10 mg/kg) [%] | Inhibition % M ± σ ([1]; 3.0 mg/kg, 32 animals) [%] | % Area Relative Inflammation (M ± σ) ([1]; 3.0 mg/kg, 32 animals) [%]
1 | O=C(COC(=O)Cc1ccccc1Nc1c(Cl)cccc1Cl)OCc1ccccc1 [I, R = CH2 --C6 H5, Benzyl 2-[(2,6-dichlorophenyl)amino]phenylacetoxyacetate] | 35.96 | 64.04 ± 7.91 | 38.51 | 95.3 | did not have any teratogenous effects | did not produce any toxic effects on the gestating females | – | – | – | – | – | – | – | – | – | –
2 | COc1ccc2c(c1)c(CC(=O)O)c(C)n2C(=O)c1ccc(Cl)cc1 [INDOMETHACIN, Indomethacin, reference compound] | – | – | – | – | – | – | 46.52 | 53.48 ± 7.82 | – | – | – | – | – | – | – | –
3 | O=C(O)COC(=O)Cc1ccccc1Nc1c(Cl)cccc1Cl [I, R = H, 2-[(2,6-dichlorophenyl)amino]phenylacetoxyacetic acid] | – | – | 68.03 | – | did not have any teratogenous effects | did not produce any toxic effects on the gestating females | – | – | 30.81 | 67.62 | 22.44 | 24.80 | 32.05 | 45.45 | 33.75 | 63.25 ± 5.88
